Measurements as given in article PMC6560211, “ApoAI-derived peptide increases glucose tolerance and prevents formation of atherosclerosis in mice” (Diabetologia, 2019).
No end group written: not given here.

Columns and labels:
DIO C57BL/6NTac mice = assay: GTT in diet-induced obesity (DIO) mice; format: in vivo, mouse; conditions: for insulin secretion in GTT: route comparison, n=6
Procedure: Male C57BL/6NTac mice (Taconic, Ejby, Denmark) at 8–9 weeks of age were acclimatised for 1 week on a normal chow diet, then changed to a high-fat diet for 2 weeks (diet-induced obesity; DIO), followed by GTT as indicated. Male Lepr^db (db/db) mice on a BKS background (Taconic) at 5 weeks of age were maintained on a normal chow diet and GTTs were performed at 5.5 and 14 weeks of age as indicated. Blood glucose levels were measured in fresh blood (C57: OneTouch Ultra2, Lifescan, Milpitas, CA, USA; db/db: GlucoSmart Swing, MSP bodmann, Bobingen, Germany) and insulin levels were assayed in serum using ELISA (Mercodia) at the times indicated in ESM Fig. 2. See ESM Methods for more details.
The effect of RG54 peptide on glucose disposal was investigated in an established insulin-resistant mouse model. DIO mice were fasted for 9 h followed by a single i.p. dose of RG54 (12 mg/kg), ApoA-I (14 mg/kg), liraglutide (0.1 mg/kg), or an equal volume of NaCl solution. After a further 3 h fasting period, GTTs were performed (Fig. 4a,b).
Fig. 4 Acute treatment with RG54 improves glucose tolerance during GTTs in three models of type 2 diabetes. Male C57Bl/6 mice fed a high-fat diet for 2 weeks (a–d) or db/db mice at 5.5 (e–h) or 14 (i–l) weeks old were fasted overnight, then treated with a single i.p. injection of NaCl (negative control, 200 μl; C57, n=12; db/db 5.5 weeks, n=6; db/db 14 weeks, n=6), liraglutide (0.1 mg/kg; C57, n=11; db/db 5.5 weeks, n=6; db/db 14 weeks, n=6), ApoA-I (14 mg/kg; C57, n=12; db/db 5.5 weeks, n=6; db/db 14 weeks, n=6) or RG54 (12 mg/kg; C57, n=12; db/db 5.5 weeks, n=6; db/db 14 weeks, n=5). After a further 3 h, mice received an i.p. glucose load (40 mg/mouse for C57; 50 mg/mouse for db/db) followed by blood and plasma collection at the indicated times, and blood glucose (a,e,i) and plasma insulin (b,f,j) concentrations were determined. Total AUC was calculated (mmol/l × min for glucose, pmol/l × min for insulin) and then normalised to the average value of the relevant NaCl control group to give relative AUC (% control) for glucose (c,g,k) and insulin (d,h,l). Values are means ± SEM. *p≤0.05, **p≤0.01, ***p≤0.001 vs NaCl control […]
We directly compared the i.p. and s.c. injection routes in DIO mice. DIO mice were fasted for 9 h, followed by a single i.p. or s.c. injection of RG54 (12 mg/kg), ApoA-I (14 mg/kg), or an equal volume of NaCl solution. After a further 3 h fasting and incubation period, GTTs were performed. […] Finally, we assessed the dose response of s.c. RG54 to find treatment concentrations with full or partial effects on glycaemic control as compared with our positive control (Fig. 6).
Male C57Bl/6 mice fed a high-fat diet for 2 weeks were fasted overnight, then treated with a single i.p. or s.c. injection of NaCl (negative control, 200 μl, n=6), ApoA-I (14 mg/kg, n=6) or RG54 (12 mg/kg, n=6). After a further 3 h, all mice received an i.p. glucose load (40 mg/mouse) followed by blood and plasma collection at the indicated times, and blood glucose (a,b) and plasma insulin (d,e) concentrations were determined for all injection routes. Total AUC was calculated (mmol/l × min for glucose, pmol/l × min for insulin) and then normalised to the average value of the relevant NaCl control group to give relative AUC (% control) for glucose (c) and insulin (f). Values are means ± SEM. ***p≤0.001 vs NaCl control […]
Male C57BL/6NTac mice were purchased from Taconic (Ejby, Denmark) at 8-9 weeks of age, acclimatised for one week on normal chow diet, then changed to a High-Fat Diet (HFD; Research Diets D12492, 60% fat content) for 2 weeks, followed by glucose tolerance testing (GTT) with timings as indicated (ESM Figure 2). Male Leprdb mice (db/db) on BKS background purchased from Taconic (BKS.Cg-m+/+Leprdb/BomTac, Ejby, Denmark) at 5 weeks of age were maintained on normal chow diet and GTTs were performed at 5.5 and 14 weeks of age with timings as indicated (ESM Figure 2). For the GTTs, mice fasted overnight […]

[1] = DMPC MLV lipid clearance (lipid binding); conditions: compared with ApoA-I; 30 nmol/l DMPC, 1:100 molar ratio, 25°C, absorbance at 325 nm; n=5
Procedure: Turbid MLV solutions at 30 nmol/l DMPC were combined with PBS, RG54 or ApoA-I at a 1:100 molar ratio, and lipid binding at 25°C was measured by absorbance at 325 nm at the indicated times. Readings were fitted to one-way decay of non-linear regression.
Quantitative and qualitative lipid assays were applied to determine the lipid-binding properties of RG54. Solubilisation of MLVs made from DMPC phospholipids by RG54 peptide, or by recombinant ApoA-I protein as control, was assayed by light scattering (ESM Fig. 4a).
ESM Figure 4. Lipid clearance and peptide-lipid complex formation activity of RG54 compared with full-length ApoA-I.
DMPC clearance activity of RG54 was compared with ApoA-I. Turbid solutions of DMPC MLVs (30 nmol/l) were prepared in PBS as described in Methods and combined with PBS, RG54, or ApoA-I at a 1:100 molar ratio then lipid binding at 25°C was measured by absorbance at 325 nm at indicated times. (a) Readings were fitted to one-way decay of non-linear regression. (b) The lipid clearance rate is described as t1/2 values calculated from panel a, means ± SEM, n=5, *** p ≤ 0.001. Further, rHDL particles were prepared by incubating the MLVs with proteins or peptides in the molar ratios noted at 24°C for four days. Particle size distribution was analysed by DLS and frequency curves generated for ApoA-I (c) or RG54 (d). […]

Ac-AEYHAKATEHLSTLSEKAKPALEDLRQGLLPVLESFKVSFLSALEEYTKKLNTQ [RG54]
fasting glucose levels (DIO C57BL/6NTac mice; DIO mice, 3 h treatment, i.p.): significantly lowered | fasting insulin levels (DIO C57BL/6NTac mice; DIO mice, 3 h treatment, i.p.): no concomitant increase | insulin sensitivity as measured by QUICKI (DIO C57BL/6NTac mice; DIO mice, 3 h treatment, i.p.): no change | insulin secretion in GTT (DIO C57BL/6NTac mice; i.p. injection, RG54 12 mg/kg, ApoA-I 14 mg/kg): increased insulin secretion | insulin secretion in GTT (DIO C57BL/6NTac mice; s.c. injection, 12 mg/kg): increased glucose clearance and insulin secretion | levels of serum insulin in GTT (DIO C57BL/6NTac mice; single i.p. dose 12 mg/kg 3 h before GTT, vs NaCl, n=12): significantly increased | initial rate of phospholipid binding [1]: significantly lower
